Data published in patent US20240083897A1, “GCN2 MODULATING COMPOUNDS AND USES THEREOF” (HiberCell, Inc., priority 2021, published 2024).
Where two headings read alike, the source gives them in different places.

Target: GCN2 (Homo sapiens (Human), UniProt Q9P2K8)
Experiment: TR-FRET biochemical assay for inhibition of GCN2
[1] = GCN2 2 nM, 100 nM GFP-eIF2a, 150 μM ATP, TR-FRET

Sequence of GCN2 (Q9P2K8 whole entry): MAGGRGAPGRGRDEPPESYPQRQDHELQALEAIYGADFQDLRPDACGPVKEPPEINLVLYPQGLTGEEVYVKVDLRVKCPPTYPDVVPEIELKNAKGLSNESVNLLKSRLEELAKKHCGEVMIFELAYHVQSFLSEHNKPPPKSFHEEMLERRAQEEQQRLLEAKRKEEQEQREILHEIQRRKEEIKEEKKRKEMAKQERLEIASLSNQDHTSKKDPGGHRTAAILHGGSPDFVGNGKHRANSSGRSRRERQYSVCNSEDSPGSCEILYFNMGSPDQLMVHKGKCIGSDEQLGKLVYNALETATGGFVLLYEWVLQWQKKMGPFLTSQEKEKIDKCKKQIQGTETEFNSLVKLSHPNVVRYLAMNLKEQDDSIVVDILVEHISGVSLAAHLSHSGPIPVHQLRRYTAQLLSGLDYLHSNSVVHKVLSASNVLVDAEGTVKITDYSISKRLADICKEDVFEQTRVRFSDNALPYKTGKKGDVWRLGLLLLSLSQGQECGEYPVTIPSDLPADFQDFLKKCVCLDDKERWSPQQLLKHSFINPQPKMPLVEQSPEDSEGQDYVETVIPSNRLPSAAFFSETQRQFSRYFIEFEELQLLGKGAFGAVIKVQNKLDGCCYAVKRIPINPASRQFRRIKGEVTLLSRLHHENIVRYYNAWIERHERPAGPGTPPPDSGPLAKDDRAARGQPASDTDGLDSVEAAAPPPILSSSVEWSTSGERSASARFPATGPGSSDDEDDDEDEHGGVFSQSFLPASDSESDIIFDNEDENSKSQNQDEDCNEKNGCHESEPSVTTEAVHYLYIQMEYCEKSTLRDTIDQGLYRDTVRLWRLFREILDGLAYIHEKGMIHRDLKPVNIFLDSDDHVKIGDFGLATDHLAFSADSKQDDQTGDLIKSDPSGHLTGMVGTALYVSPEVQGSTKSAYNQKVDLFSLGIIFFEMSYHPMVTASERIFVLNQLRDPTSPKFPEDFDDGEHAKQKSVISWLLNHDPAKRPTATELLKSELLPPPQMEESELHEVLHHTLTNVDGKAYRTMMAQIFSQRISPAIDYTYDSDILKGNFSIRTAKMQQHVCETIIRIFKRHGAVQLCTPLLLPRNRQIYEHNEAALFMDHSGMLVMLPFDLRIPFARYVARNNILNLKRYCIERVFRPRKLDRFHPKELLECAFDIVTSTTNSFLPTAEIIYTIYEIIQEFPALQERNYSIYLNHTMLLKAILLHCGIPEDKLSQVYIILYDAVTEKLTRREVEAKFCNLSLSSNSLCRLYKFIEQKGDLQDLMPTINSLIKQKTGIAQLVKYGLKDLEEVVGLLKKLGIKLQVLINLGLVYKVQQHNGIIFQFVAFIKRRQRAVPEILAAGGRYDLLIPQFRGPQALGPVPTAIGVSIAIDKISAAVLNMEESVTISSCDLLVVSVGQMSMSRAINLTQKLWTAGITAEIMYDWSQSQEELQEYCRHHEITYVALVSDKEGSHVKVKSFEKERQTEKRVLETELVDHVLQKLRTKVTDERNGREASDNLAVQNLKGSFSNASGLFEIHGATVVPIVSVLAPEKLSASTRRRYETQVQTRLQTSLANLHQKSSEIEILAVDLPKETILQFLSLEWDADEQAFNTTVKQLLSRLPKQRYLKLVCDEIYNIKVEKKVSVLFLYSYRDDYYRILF

SMILES | IC50 [µM] | IC50 [1] [µM]
CNC(=O)c1ncn2cc(-c3c(F)ccc(NS(=O)(=O)c4cc(Cl)cnc4OC(C)C)c3F)ncc12 [Compound 168, 6-[3-(5-chloro-2-isopropoxypyridine-3-sulfonamido)-2,6-difluorophenyl]-N-methylimidazo[1,5-a]pyrazine-1-carboxamide] | 0.05 to 0.5 | 
CNC(=O)c1ncn2cc(-c3c(F)ccc(NS(=O)(=O)c4cc(Cl)cnc4OC4CC4)c3F)ncc12 [Compound 169, 6-[3-(5-chloro-2-cyclopropoxypyridine-3-sulfonamido)-2,6-difluorophenyl]-N-methylimidazo[1,5-a]pyrazine-1-carboxamide] | 0.05 to 0.5 | 
CNC(=O)c1ncn2c(F)c(-c3c(F)ccc(NS(=O)(=O)c4cc(F)cnc4OC)c3F)ncc12 [Compound 170, 6-[2,6-difluoro-3-(5-fluoro-2-methoxypyridine-3-sulfonamido)phenyl]-5-fluoro-N-methylimidazo[1,5-a]pyrazine-1-carboxamide] | 0.05 to 0.5 | 
COc1ncc(Cl)cc1S(=O)(=O)Nc1ccc(F)c(-c2cn3cnc(C(N)=O)c3cn2)c1F [Compound 171, 6-[3-(5-chloro-2-methoxypyridine-3-sulfonamido)-2,6-difluorophenyl]imidazo[1,5-a]pyrazine-1-carboxamide] |  | < 0.05
COc1ncc(Cl)cc1S(=O)(=O)Nc1ccc(F)c(-c2cn3cnc(C(=O)NCCCN(C)C)c3cn2)c1F [Compound 172, 6-[3-(5-chloro-2-methoxypyridine-3-sulfonamido)-2,6-difluorophenyl]-N-[3-(dimethylamino)propyl]imidazo[1,5-a]pyrazine-1-carboxamide] | 0.05 to 0.5 | 
COc1ncc(Cl)cc1S(=O)(=O)Nc1ccc(F)c(-c2cn3cnc(C(=O)N[C@@H]4CCN(C)C4)c3cn2)c1F [Compound 173-1, (R)-6-(3-((5-chloro-2-methoxypyridine)-3-sulfonamido)-2,6-difluorophenyl)-N-(1-methylpyrrolidin-3-yl)imidazo[1,5-a]pyrazine-1-carboxamide] | 0.05 to 0.5 | 
COc1ncc(Cl)cc1S(=O)(=O)Nc1ccc(F)c(-c2cn3cnc(C(=O)N[C@H]4CCN(C)C4)c3cn2)c1F [Compound 173-2, (S)-6-(3-((5-chloro-2-methoxypyridine)-3-sulfonamido)-2,6-difluorophenyl)-N-(1-methylpyrrolidin-3-yl)imidazo[1,5-a]pyrazine-1-carboxamide] |  | < 0.05
COc1ncc(Cl)cc1S(=O)(=O)Nc1ccc(F)c(-c2cn3cnc(C(=O)Nc4cnoc4)c3cn2)c1F [Compound 174, 6-[3-(5-chloro-2-methoxypyridine-3-sulfonamido)-2,6-difluorophenyl]-N-(1,2-oxazol-4-yl)imidazo[1,5-a]pyrazine-1-carboxamide] |  | < 0.05
COc1ncc(Cl)cc1S(=O)(=O)Nc1ccc(F)c(-c2cn3cnc(C(=O)NCCN4CCOCC4)c3cn2)c1F [Compound 175, 6-[3-(5-chloro-2-methoxypyridine-3-sulfonamido)-2,6-difluorophenyl]-N-[2-(morpholin-4-yl)ethyl]imidazo[1,5-a]pyrazine-1-carboxamide] |  | < 0.05
CNC(=O)c1ncn2cc(-c3c(F)ccc(NS(=O)(=O)c4cc(Cl)cnc4OCC(C)C)c3F)ncc12 [Compound 176, 6-[3-[5-chloro-2-(2-methylpropoxy)pyridine-3-sulfonamido]-2,6-difluorophenyl]-N-methylimidazo[1,5-a]pyrazine-1-carboxamide] | 0.5 to 1 | 
COc1ncc(F)cc1S(=O)(=O)Nc1ccc(F)c(-c2cn3cnc(-c4[nH]cnc4C4CC4)c3cn2)c1F [Compound 177, N-[3-[1-(5-cyclopropyl-3H-imidazol-4-yl)imidazo[1,5-a]pyrazin-6-yl]-2,4-difluorophenyl]-5-fluoro-2-methoxypyridine-3-sulfonamide] | 0.05 to 0.5 | 
COc1ncc(F)cc1S(=O)(=O)Nc1ccc(F)c(-c2cn3cnc(-c4nc(Cc5ccccc5)c[nH]4)c3cn2)c1F [Compound 178, N-[3-[1-(4-benzyl-1H-imidazol-2-yl)imidazo[1,5-a]pyrazin-6-yl]-2,4-difluorophenyl]-5-fluoro-2-methoxypyridine-3-sulfonamide] |  | < 0.05
COc1ncc(Cl)cc1S(=O)(=O)Nc1ccc(F)c(-c2cn3cnc(C(=O)NCCN(C)C)c3cn2)c1F [Compound 179, 6-[3-(5-chloro-2-methoxypyridine-3-sulfonamido)-2,6-difluorophenyl]-N-[2-(dimethylamino)ethyl]imidazo[1,5-a]pyrazine-1-carboxamide] | 0.05 to 0.5 | 
COc1ncc(Cl)cc1S(=O)(=O)Nc1ccc(F)c(-c2cn3cnc(C(=O)NCCN4CCCC4=O)c3cn2)c1F [Compound 180, 6-[3-(5-chloro-2-methoxypyridine-3-sulfonamido)-2,6-difluorophenyl]-N-[2-(2-oxopyrrolidin-1-yl)ethyl]imidazo[1,5-a]pyrazine-1-carboxamide] | 0.05 to 0.5 | 
COc1ncc(Cl)cc1S(=O)(=O)Nc1ccc(F)c(-c2cn3cnc(C(=O)Nc4ccc(CN(C)C)cc4)c3cn2)c1F [Compound 181, 6-[3-(5-chloro-2-methoxypyridine-3-sulfonamido)-2,6-difluorophenyl]-N-[4-[(dimethylamino)methyl]phenyl]imidazo[1,5-a]pyrazine-1-carboxamide] |  | < 0.05
CNC(=O)c1ncn2cc(-c3c(F)ccc(NS(=O)(=O)c4cc(Cl)cnc4OCC(F)(F)F)c3F)ncc12 [Compound 182, 6-[3-[5-chloro-2-(2,2,2-trifluoroethoxy)pyridine-3-sulfonamido]-2,6-difluorophenyl]-N-methylimidazo[1,5-a]pyrazine-1-carboxamide] | 0.5 to 1 | 
CNC(=O)c1ncn2cc(-c3c(F)ccc(NS(=O)(=O)c4cc(Cl)cnc4OCc4ccccc4)c3F)ncc12 [Compound 183, 6-[3-[2-(benzyloxy)-5-chloropyridine-3-sulfonamido]-2,6-difluorophenyl]-N-methylimidazo[1,5-a]pyrazine-1-carboxamide] |  | > 1
CNC(=O)c1ncn2c(F)c(-c3c(F)ccc(NS(=O)(=O)c4cc(F)cnc4C)c3F)ncc12 [Compound 184, 6-[2,6-difluoro-3-(5-fluoro-2-methylpyridine-3-sulfonamido)phenyl]-5-fluoro-N-methylimidazo[1,5-a]pyrazine-1-carboxamide] | 0.05 to 0.5 | 
COc1ncc(F)cc1S(=O)(=O)Nc1ccc(F)c(-c2ccc3c(-c4nc5ccc(N6CCN(C)CC6)cc5[nH]4)ncn3c2)c1F [Compound 185, N-(2,4-difluoro-3-[1-[5-(4-methylpiperazin-1-yl)-3H-1,3-benzodiazol-2-yl]imidazo[1,5-a]pyridin-6-yl]phenyl)-5-fluoro-2-methoxypyridine-3-sulfonamide] |  | < 0.05
CNC(=O)c1ncn2c(F)c(-c3c(F)ccc(NS(=O)(=O)c4cc(Cl)cnc4C)c3F)ncc12 [Compound 186, 6-[3-(5-chloro-2-methylpyridine-3-sulfonamido)-2,6-difluorophenyl]-5-fluoro-N-methylimidazo[1,5-a]pyrazine-1-carboxamide] |  | < 0.05
